*1 amine or outer side, *2 acyl side, *3 side chain or, on linkers, in order; H or OH if unused. Where a SMILES comes first, the peptide text is derived from it. Bridges are numbered along the chain shown (N, C = ends). [ ]: non-standard residue; d: D form. The star is where a group is joined. ξ: configuration not given here. X19 = CC(C)C[C@H](NN(C)[C@H](Cc1ccccc1)N(C)[*:1])C(=O)[*:2]; NMePhe(3-Cl) = CN[C@@H](Cc1cccc(Cl)c1)C(=O)O; X12 = O=C([C@H](CCCC(O)C(F)(F)F)N[*:1])[*:2]; Tyr(3-OMe) = COc1cc(C[C@H](N)C(=O)O)ccc1O; NMeF = CN[C@@H](Cc1ccccc1)C(=O)O; NMeGABA = CN(CCCC(=O)[*:2])[*:1]; NMeI = CC[C@H](C)[C@H](NC)C(=O)O; NMeξIle = CC[C@H](C)C(NC)C(=O)O; NMeL = CN[C@@H](CC(C)C)C(=O)O; NMeV = CN[C@H](C(=O)O)C(C)C; NMeAbu = CC[C@H](NC)C(=O)O; NMeA = CN[C@@H](C)C(=O)O; Piperidide = C1CCN(*)CC1; NBuGly = CCCCNCC(=O)O; ξV = CC(C)C(N)C(=O)O; Sar = CNCC(=O)O; tBu = CC(C)(C)*
Test: in vitro
Details: human
[1] = Caco-2, Caco-2 (membrane permeability)

Compound	Papp [1] [nm/s]	Papp (Caco-2, Caco-2 (cm/sec)) [nm/s]
CC[C@H](C)[C@H]1C(=O)N[C@@H]([C@@H](C)O)C(=O)N(C)CC(=O)N(C)[C@@H](CC(C)C)C(=O)N[C@H](C(=O)N2CCCCC2)CC(=O)N(C)[C@@H](C(C)C)C(=O)N[C@@H](CC(C)C)C(=O)N(C)[C@@H](CC(C)C)C(=O)N(C)[C@@H](Cc2ccccc2)C(=O)N[C@@H](CCCC(O)C(F)(F)F)C(=O)N(C)[C@@H](Cc2ccccc2)C(=O)N1C (stereo partly drawn) [Compound D05] ([NMeV]L[NMeL][NMeF][X12][NMeF][NMeI]T[Sar][NMeL]D-Piperidide; lactam N-11)	3.6	
CCCCN1CC(=O)N(C)[C@@H](Cc2ccccc2)C(=O)N(C)[C@@H](CC(C)C)C(=O)N[C@@H](COC(C)(C)C)C(=O)N(C)[C@@H](CC(C)C)C(=O)N[C@H](C(=O)N2CCCCC2)CC(=O)N(C)CC(=O)N(C)[C@@H](Cc2cccc(Cl)c2)C(=O)N[C@@H](CCCC(O)C(F)(F)F)C(=O)N(C)[C@@H](CC(C)C)C(=O)N[C@@H]([C@@H](C)O)C1=O (stereo partly drawn) [Compound D06] ([Sar][NMePhe(3-Cl)][X12][NMeL]T[NBuGly][NMeF][NMeL]S(tBu)[NMeL]D-Piperidide; lactam N-11)	2.3	
CCCCN1CC(=O)N(C)[C@@H](Cc2ccccc2)C(=O)N(C)[C@@H](CC(C)C)C(=O)N[C@@H](CCCC(O)C(F)(F)F)C(=O)N(C)[C@@H](CC(C)C)C(=O)N[C@H](C(=O)N2CCCCC2)CC(=O)N(C)CC(=O)N(C)[C@@H](Cc2ccccc2)C(=O)N[C@@H]([C@@H](C)CC)C(=O)N(C)[C@@H](CC(C)C)C(=O)N[C@@H]([C@@H](C)O)C1=O (stereo partly drawn) [Compound D07] ([Sar][NMeF]I[NMeL]T[NBuGly][NMeF][NMeL][X12][NMeL]D-Piperidide; lactam N-11)	3.7	
CC[C@H](C)[C@H]1C(=O)N[C@@H]([C@@H](C)O)C(=O)N(C)CC(=O)N(C)[C@@H](CC(C)C)C(=O)N[C@H](C(=O)N2CCCCC2)CC(=O)N(C)[C@@H](C(C)C)C(=O)N[C@@H](CCCC(O)C(F)(F)F)C(=O)N(C)[C@@H](CC(C)C)C(=O)N(C)[C@@H](Cc2ccccc2)C(=O)N[C@@H](CC(C)C)C(=O)N(C)[C@@H](Cc2ccccc2)C(=O)N1C (stereo partly drawn) [Compound D08] ([NMeV][X12][NMeL][NMeF]L[NMeF][NMeI]T[Sar][NMeL]D-Piperidide; lactam N-11)	5.3	
CCCCN1CC(=O)N(C)[C@@H](CC(C)C)C(=O)N[C@@H](CCCC(O)C(F)(F)F)C(=O)N(C)[C@@H](Cc2ccccc2)C(=O)N(C)[C@@H](C(C)C)C(=O)N[C@H](C(=O)N2CCCCC2)CC(=O)N[C@H](C(C)C)C(=O)N(C)[C@@H](Cc2ccccc2)C(=O)N[C@@H](CC(C)C)C(=O)N(C)[C@@H](CC(C)C)C(=O)N[C@@H]([C@@H](C)O)C1=O (stereo partly drawn) [Compound D09] ([dV][NMeF]L[NMeL]T[NBuGly][NMeL][X12][NMeF][NMeV]D-Piperidide; lactam N-11)	1.3	
CC[C@H]1C(=O)N[C@@H](COC(C)(C)C)C(=O)N(C)[C@@H](Cc2ccccc2)C(=O)N(C)[C@@H](CC(C)C)C(=O)N[C@H](C(=O)N2CCCCC2)CC(=O)N[C@H](CC(C)C)C(=O)N(C)[C@@H](Cc2ccccc2)C(=O)N[C@@H](CC(C)C)C(=O)N(C)[C@@H](CC)C(=O)N[C@@H](CCCC(O)C(F)(F)F)C(=O)N(C)CC(=O)N1C (stereo partly drawn) [Compound D10] ([dL][NMeF]L[NMeAbu][X12][Sar][NMeAbu]S(tBu)[NMeF][NMeL]D-Piperidide; lactam N-11)	8.1	
CC[C@H]1C(=O)N(C)[C@@H](Cc2ccccc2)C(=O)N[C@@H](CC(C)C)C(=O)N(C)[C@@H](Cc2ccccc2)C(=O)N(C)[C@@H](C(C)C)C(=O)N[C@@H](CCCC(O)C(F)(F)F)C(=O)N(C)CC(=O)N(C)[C@@H](CC(C)C)C(=O)N[C@H](C(=O)N2CCCCC2)CC(=O)N(C)[C@@H](C)C(=O)N[C@@H](CC(C)C)C(=O)N1C (stereo partly drawn) [Compound D14] ([NMeA]L[NMeAbu][NMeF]L[NMeF][NMeV][X12][Sar][NMeL]D-Piperidide; lactam N-11)	9	
CC[C@H](C)C1C(=O)NC(C(C)C)C(=O)N(C)CC(=O)N(C)[C@@H](CC(C)C)C(=O)N[C@H](C(=O)N2CCCCC2)CC(=O)N(C)[C@@H](C)C(=O)N[C@@H](CCCC(O)C(F)(F)F)C(=O)N(C)[C@@H](CC(C)C)C(=O)N(C)[C@@H](Cc2ccccc2)C(=O)N[C@@H](CC(C)C)C(=O)N(C)[C@@H](Cc2ccccc2)C(=O)N1C (stereo partly drawn) [Compound D15] ([NMeA][X12][NMeL][NMeF]L[NMeF][NMeξIle][ξV][Sar][NMeL]D-Piperidide; lactam N-11)	6.1	
CCCCN1CC(=O)N(C)[C@@H](Cc2ccccc2)C(=O)N(C)[C@@H](CC(C)C)C(=O)N[C@@H](COC(C)(C)C)C(=O)N(C)[C@@H](CC(C)C)C(=O)N[C@H](C(=O)N2CCCCC2)CC(=O)N(C)CC(=O)N(C)[C@@H](Cc2ccccc2)C(=O)N[C@@H](C(C)C)C(=O)N(C)[C@@H](CC)C(=O)N[C@@H](CCCC(O)C(F)(F)F)C1=O (stereo partly drawn) [Compound D16] ([Sar][NMeF]V[NMeAbu][X12][NBuGly][NMeF][NMeL]S(tBu)[NMeL]D-Piperidide; lactam N-11)	5.1	
CC[C@H](C)[C@@H]1NC(=O)[C@H](CC(C)C)N(C)C(=O)[C@H](CCCC(O)C(F)(F)F)NC(=O)[C@H](Cc2ccccc2)N(C)C(=O)CN(C)C(=O)C[C@@H](C(=O)N2CCCCC2)NC(=O)[C@H](CC(C)C)N(C)C(=O)[C@H](COC(C)(C)C)NC(=O)[C@H](CC(C)C)N(C)C(=O)[C@H](Cc2ccccc2)N(C)C(=O)CN(C)C1=O (stereo partly drawn) [Compound D17] ([Sar][NMeF][X12][NMeL]I[Sar][NMeF][NMeL]S(tBu)[NMeL]D-Piperidide; lactam N-11)	10	
COc1cc(C[C@@H]2NC(=O)[C@H](CC(C)C)N(C)C(=O)CN(C)C(=O)[C@H]([C@@H](C)O)NC(=O)[C@H](CC(C)C)N(C)C(=O)[C@H](CC(C)C)NN(C)[C@H](Cc3ccccc3)N(C)C(=O)[C@@H](C(C)C)NC(=O)C[C@@H](C(=O)N3CCCCC3)NC(=O)[C@H](CC(C)C)N(C)C(=O)[C@H](CC(C)C)N(C)C2=O)ccc1O [Compound E01] ([dV][X19][NMeL]T[Sar][NMeL][Tyr(3-OMe)][NMeL][NMeL]D-Piperidide; lactam N-10)		11
CCCCN1CC(=O)N(C)[C@@H](CC(C)C)C(=O)N[C@@H](COC(C)(C)C)C(=O)N(C)[C@@H](CC(C)C)C(=O)N(C)[C@@H](CC)C(=O)N[C@H](C(=O)N2CCCCC2)CC(=O)N[C@H](CC(C)C)C(=O)N(C)[C@@H](Cc2ccccc2)C(=O)N[C@@H](Cc2ccc(O)c(OC)c2)C(=O)N(C)[C@@H](CC(C)C)C(=O)N[C@@H]([C@@H](C)O)C1=O [Compound E02] ([dL][NMeF][Tyr(3-OMe)][NMeL]T[NBuGly][NMeL]S(tBu)[NMeL][NMeAbu]D-Piperidide; lactam N-11)		3.1
CC[C@H](C)[C@@H]1NC(=O)[C@H](CC(C)C)N(C)C(=O)CCCN(C)C(=O)C[C@@H](C(=O)N2CCCCC2)NC(=O)[C@H](CC(C)C)N(C)C(=O)[C@H](CC(C)C)N(C)C(=O)[C@H]([C@@H](C)O)NC(=O)[C@H](CC(C)C)N(C)C(=O)[C@H](Cc2ccc(O)c(OC)c2)NC(=O)[C@H](CC(C)C)N(C)C(=O)[C@H](Cc2ccccc2)N(C)C1=O [Compound E03] ([NMeGABA][NMeL]I[NMeF][NMeL][Tyr(3-OMe)][NMeL]T[NMeL][NMeL]D-Piperidide; lactam N-11)		1.8
